According to paper PMC6851324, “Design and development of stapled transmembrane peptides that disrupt the activity of G-protein–coupled receptor oligomers” (The Journal of Biological Chemistry, 2019):
Where a SMILES comes first, the peptide text is derived from it. Bridges are numbered along the chain shown (N, C = ends). Where no end group is shown, it is not given here. [ ]: non-standard residue; d: D form. S5 = C=CCCC[C@](C)(N)C(=O)O; Nle = CCCC[C@H](N)C(=O)O

Target: T1, 5-HT2AR–CB1R heteromers (Homo sapiens, UniProt P28223)
T1 construct: expressed in transfected cells; host or cells: HEK293 (ATCC CRL-1573), transient reverse transfection
Test: NanoBiT BiLC peptide screening assay (LgBiT–CB1R + SmBiT–5-HT2AR)
Assay type: cell-based
Conditions: HEK293 cells transiently expressing LgBiT–CB1R and SmBiT–5-HT2AR, preincubated 1 h with 4 μM peptide, luminescence normalized to vehicle, n ≥ 5
Procedure: Figure 5. Identification of a small-stapled TM peptide disrupting 5-HT2AR–CB1R heteromers. A, schematic representation of the NanoBiT assay using N-terminally labeled constructs. In B, HEK293 cells transiently expressing the LgBT–CB1R and SmBiT–5-HT2AR complementary pairs were preincubated for 1 h at 37 °C with the indicated peptides (4 μM) or vehicle prior to luminescence recording. Data are mean RLU ± S.E. (error bars) (n ≥ 5) percentage of luminescence normalized to vehicle-treated cells. Statistical significance was evaluated by one-way ANOVA followed by Bonferroni post hoc tests, indicating significant differences over vehicle-treated cells (***, p ≤ 0.001; ****, p ≤ 0.0001) and for peptide 10 over its related peptides (####, p ≤ 0.0001). Peptide 10 potency (C) was evaluated as in A over increasing peptide concentrations (bottom) (n = 3). Alternatively, to assess the kinetics of the peptide 10–driven heteromer disruption (D), prior to the administration of the peptide, the cells were preincubated with substrate, and the luminescence was recorded over the following 30 min. Data are mean RLU ± S.E. (n ≥ 3) percentage of luminescence normalized to vehicle-treated cells.
To assess GPCR protein–protein interactions with the NanoBiT technology, HEK293 cells (50,000 cells/well) were seeded in poly-D-lysine–coated white clear bottom 96-well plates and reverse-transfected (see above) with the plasmids encoding the complementary NanoBiT hemiprotein fragments. For orientation screenings, cells were transfected with two different concentrations (50 and 100 ng/well) of each receptor alone or in combination with the investigated partner (see figure legends) in the presence of empty vector (pcDNA3.1(+)) to normalize the total amount of DNA/well. For studies in the presence of increasing nontagged receptor competitors, 100 ng of each receptor pair (CB1R LgBiT + CB1R SmBiT, 5-HT2AR LgBiT + 5-HT2AR SmBiT, and 5-HT2AR LgBiT + CB1R SmBiT) were co-transfected with increasing concentrations of the different nontagged constructs (from 0 to 300 ng/well), and the total amounts of DNA/well were normalized with empty vector (pcDNA3.1(+)). For the screening of stapled peptides, 50 ng/well of both LgBiT CB1R and SmBiT 5-HT2AR were reverse-transfected as detailed previously. 24 h post- transfection, the cell culture medium was removed, and the cells were starved in FBS-free DMEM for 4 h at 37 °C in a 5% CO2 humidified atmosphere. The cell culture medium was replaced by 100 μl of NanoBiT assay buffer (same as for cAMP measurements), and the plates were pre-equilibrated for 1 h at RT in the dark. When peptide pretreatment was required, peptides were added over this pre-equilibration step, except when studying inhibition kinetics, when the peptides were administered immediately after the baseline luminescence recording. 25 μl/well of a 5× solution of the Nano-Glo® live cell reagent containing the cell-permeable furimazine substrate dissolved in Nano-Glo® LCS dilution buffer were added, and the luminescence was immediately monitored in CLARIOstar® Multimode Plate Reader (BMG Labtech) with no lens (1-s integration time/well for 1 h every minute).
Dose–response curves were fitted using a four-parameter logistic nonlinear regression mode. Peptide stability data were fitted using a nonlinear regression mode for dissociation kinetics. All statistical tests, curve fitting, and graphing were performed using GraphPad Prism 8 (GraphPad Software, La Jolla, CA).

T1 sequence (P28223 2-471, one chain of several): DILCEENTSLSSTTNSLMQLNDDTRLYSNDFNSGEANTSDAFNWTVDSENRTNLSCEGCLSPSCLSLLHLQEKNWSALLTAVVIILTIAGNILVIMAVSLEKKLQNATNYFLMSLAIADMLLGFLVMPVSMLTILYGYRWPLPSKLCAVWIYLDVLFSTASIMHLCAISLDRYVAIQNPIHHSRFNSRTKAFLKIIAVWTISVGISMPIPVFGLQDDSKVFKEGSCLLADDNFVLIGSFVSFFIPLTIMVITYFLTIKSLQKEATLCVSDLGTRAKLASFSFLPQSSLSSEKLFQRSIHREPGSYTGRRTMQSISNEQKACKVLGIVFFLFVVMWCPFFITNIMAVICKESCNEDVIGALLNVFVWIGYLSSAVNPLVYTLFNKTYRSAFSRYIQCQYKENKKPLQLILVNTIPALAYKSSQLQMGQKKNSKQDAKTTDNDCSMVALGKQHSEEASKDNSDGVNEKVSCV

Molecule | effect on NanoBiT luminescence (heteromer disruption)
CCCC[C@H](NC(=O)[C@]1(C)CCC/C=C\CCC[C@](C)(NC(=O)[C@H](Cc2ccccc2)NC(=O)[C@H](CC(C)C)NC(=O)[C@H](CC(C)C)NC(=O)[C@H](CC(C)C)NC(=O)[C@@H](N)C(C)C)C(=O)N[C@@H](C(C)C)C(=O)N[C@@H](Cc2ccc(O)cc2)C(=O)N[C@@H](C)C(=O)N1)C(=O)N[C@@H](Cc1ccc(O)cc1)C(=O)N[C@H](C(=O)N[C@@H](CC(C)C)C(=O)N[C@@H](Cc1c[nH]c2ccccc12)C(N)=O)[C@@H](C)CC [Peptide 8] (H-VLLLF[S5]VYA[S5][Nle]YILW-NH2; staple (Z) 6-10) | not as efficient as compound 10
C=CCCC[C@](C)(NC(=O)[C@H](Cc1ccc(O)cc1)NC(=O)[C@@H](N)C(C)C)C(=O)N[C@@H](Cc1ccc(O)cc1)C(=O)N[C@@H](CCCC)C(=O)N[C@@](C)(CCCC=C)C(=O)N[C@H](C(=O)N[C@@H](CC(C)C)C(=O)N[C@@H](Cc1c[nH]c2ccccc12)C(N)=O)[C@@H](C)CC [Peptide 11] (H-VY[S5]Y[Nle][S5]ILW-NH2) | neither the version lacking the TAT amino acid sequence, compound 9, nor the nonstaple, compound 11, peptides induced any change
ETYLMFWIGVTSVLLLFIVYAYMYILWGRKKRRQRRR [TM5-TAT, reference compound] | decrease in the luminescence readout
GRKKRRQRRRKTLVLILVVLIICWGPLLAIMVY [TM6-TAT, reference compound] | decrease in the luminescence readout
